According to PubChem BioAssay (NCI):
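Protocol summary: plate cells (96-well), add compound at 5 concentrations, incubate 48 h, interpolate endpoints linearly. GI50 marks 50% less growth. TGI denotes the concentration required for complete inhibition of growth.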

Assays:
Test in all cases: DTP human tumour cell line panel, 48 h
DLD-1 colon = test system: DLD-1 colon
EKVX NSCLC = test system: EKVX NSCLC
HOP-92 NSCLC = test system: HOP-92 NSCLC
IGROV1 ovarian = test system: IGROV1 ovarian
KM12 colon = test system: KM12 colon
MOLT-4 leukemia = test system: MOLT-4 leukemia
NCI-H23 lung = test system: NCI-H23 lung
SNB-78 CNS = test system: SNB-78 CNS
MDA-MB-231 breast = test system: MDA-MB-231 breast

## O=C1C(c2ccccc2)=C(c2ccccc2)C(c2ccccc2)/C1=C1\C(=O)C(c2ccccc2)=C(c2ccccc2)C1c1ccccc1 (centres undefined)
DLD-1 colon
  TGI: > 100 µM
EKVX NSCLC
  TGI: > 100 µM
HOP-92 NSCLC
  TGI: > 100 µM
IGROV1 ovarian
  TGI: > 100 µM
KM12 colon
  TGI: > 100 µM
MOLT-4 leukemia
  TGI: > 100 µM
NCI-H23 lung
  TGI: > 100 µM
SNB-78 CNS
  TGI: > 100 µM

## CC(CN(CP(=O)([O-])[O-])CP(=O)([O-])[O-])N(CP(=O)([O-])[O-])CP(=O)([O-])[O-].N[C@@H]1CCCC[C@@H]1N.[Pt+2] (centres undefined)
DLD-1 colon
  GI50: > 100 µM
  TGI: > 100 µM
EKVX NSCLC
  GI50: > 100 µM
  TGI: > 100 µM
HOP-92 NSCLC
  GI50: > 100 µM
  TGI: > 100 µM
IGROV1 ovarian
  GI50: > 100 µM
  TGI: > 100 µM
KM12 colon
  GI50: > 100 µM
  TGI: > 100 µM
MOLT-4 leukemia
  GI50: > 100 µM
  TGI: > 100 µM
NCI-H23 lung
  GI50: > 100 µM
  TGI: > 100 µM
SNB-78 CNS
  GI50: > 100 µM
  TGI: > 100 µM

## O=S1(=O)CSc2ccc3ccccc3c2-c2c1ccc1ccccc21
DLD-1 colon
  TGI: > 100 µM
HOP-92 NSCLC
  TGI: > 100 µM
IGROV1 ovarian
  TGI: > 100 µM
KM12 colon
  TGI: > 100 µM
MOLT-4 leukemia
  TGI: > 100 µM
NCI-H23 lung
  TGI: > 100 µM
SNB-78 CNS
  TGI: > 100 µM

## CC(=O)O[C@H]1CC[C@@]2(C)C(=CC[C@@H]3C2CC[C@]2(C)Nc4oncc4CC32)C1 (some centres undefined)
DLD-1 colon
  TGI: > 100 µM
EKVX NSCLC
  TGI: > 100 µM
IGROV1 ovarian
  TGI: > 100 µM
KM12 colon
  TGI: 61.4 µM
MOLT-4 leukemia
  TGI: 28.9 µM
NCI-H23 lung
  TGI: > 100 µM

## Cc1cc2c(=O)cc(-c3ccc(Cl)cc3)oc2c(C(=O)O)c1C
DLD-1 colon
  TGI: > 100 µM
EKVX NSCLC
  TGI: > 100 µM
IGROV1 ovarian
  TGI: > 100 µM
KM12 colon
  TGI: > 100 µM
MOLT-4 leukemia
  TGI: > 100 µM
NCI-H23 lung
  TGI: > 100 µM
SNB-78 CNS
  TGI: > 100 µM

## CCCCOC(=O)N[C@H]1CCc2cc(OC)c(OC)c(OC)c2-c2ccc(SC)c(=O)cc21
DLD-1 colon
  TGI: > 100 µM
EKVX NSCLC
  TGI: > 100 µM
HOP-92 NSCLC
  TGI: 30.9 µM
IGROV1 ovarian
  TGI: 92.5 µM
KM12 colon
  TGI: < 0.0464 µM
MOLT-4 leukemia
  TGI: 57.8 µM
NCI-H23 lung
  TGI: 8.09 µM
MDA-MB-231 breast
  TGI: 2.8 µM
SNB-78 CNS
  TGI: > 4.64 µM

## N#CC(C#N)=C1NC(=O)C(c2ccccc2)C(=O)N1 (centres undefined)
DLD-1 colon
  TGI: > 100 µM
EKVX NSCLC
  TGI: > 100 µM
HOP-92 NSCLC
  TGI: > 100 µM
IGROV1 ovarian
  TGI: > 100 µM
KM12 colon
  TGI: > 100 µM
MOLT-4 leukemia
  TGI: > 100 µM
NCI-H23 lung
  TGI: > 100 µM
SNB-78 CNS
  TGI: > 100 µM

## CCOc1ccc(NC(=O)C2=C(C)NC(C)=C(C(=O)Nc3ccc(OCC)cc3)C2c2ccc([N+](=O)[O-])cc2)cc1
DLD-1 colon
  TGI: > 100 µM
EKVX NSCLC
  TGI: > 100 µM
HOP-92 NSCLC
  TGI: 58.6 µM
IGROV1 ovarian
  TGI: > 100 µM
KM12 colon
  TGI: > 100 µM
MOLT-4 leukemia
  TGI: 66.9 µM
NCI-H23 lung
  TGI: > 100 µM
SNB-78 CNS
  TGI: > 100 µM

## Cn1cc(C(=O)C2CCCCC2)ccc1=O
DLD-1 colon
  TGI: > 100 µM
EKVX NSCLC
  TGI: > 100 µM
HOP-92 NSCLC
  TGI: > 100 µM
IGROV1 ovarian
  TGI: > 100 µM
KM12 colon
  TGI: > 100 µM
MOLT-4 leukemia
  TGI: > 100 µM
NCI-H23 lung
  TGI: > 100 µM
SNB-78 CNS
  TGI: > 100 µM

## Cc1cc(Cl)ccc1N1C(=O)C(=O)C(c2nc3ccccc3s2)C(=O)C1=O
DLD-1 colon
  TGI: > 100 µM
EKVX NSCLC
  TGI: > 100 µM
HOP-92 NSCLC
  TGI: > 100 µM
IGROV1 ovarian
  TGI: > 100 µM
KM12 colon
  TGI: > 100 µM
MOLT-4 leukemia
  TGI: > 100 µM
NCI-H23 lung
  TGI: > 100 µM
SNB-78 CNS
  TGI: > 100 µM

## C[Si](C)(C)/C(Br)=C\CCN1C(=O)CCC1O (centres undefined)
EKVX NSCLC
  TGI: > 100 µM
HOP-92 NSCLC
  TGI: > 100 µM
IGROV1 ovarian
  TGI: > 100 µM
KM12 colon
  TGI: > 100 µM
MOLT-4 leukemia
  TGI: > 100 µM
NCI-H23 lung
  TGI: > 100 µM
SNB-78 CNS
  TGI: > 100 µM

## CC(C)(C)c1cc(C(O)(C(F)(F)F)C(F)(F)F)c2c(c1)C(C(F)(F)F)(C(F)(F)F)OC(c1ccccc1)(C(C)(C)C)N2 (centres undefined)
DLD-1 colon
  TGI: 14.6 µM
EKVX NSCLC
  TGI: 17.5 µM
IGROV1 ovarian
  TGI: 16.7 µM
KM12 colon
  TGI: 17.6 µM
MOLT-4 leukemia
  TGI: 4.91 µM
NCI-H23 lung
  TGI: 10.3 µM
SNB-78 CNS
  TGI: 24.1 µM
